Source: patent publication US20100215618A1, “NOVEL COMPOUNDS - 644” (Arrow Therapeutics Limited, priority 2009, published 2010)
pIC50: −log10 of the molar value. Where two headings read alike, the source gives them in different places.

What was measured:
[1] = system: HCV genotype 1a replicon cells Htat2ANeo; experiment: 1a Replicon Assay (cell-based anti-NS5a ELISA); conditions: Hepatitis C virus, 72 h; for pIC50: read-out: HCV IC50 Elisa 1a; for IC50: read-out: pIC50 1a Replicon (converted)
Procedure: HCV genotype la replicon cells Htat2ANeo (University of Texas), containing neomycin phosphotransferase fusion protein and EMCV-IRES driven HCV polyprotein with cell culture adaptive mutations, and control cells, Et2AN.
Cells were cultured at 37° C./5% CO2 and split twice a week. G418 at 0.5 mg/ml and Blastocidin at 2 mg/ml were added to the culture medium but not the assay medium.
The culture medium consisted of DMEM with […] glucose and Glutamax (Gibco 61965-026) supplemented with 1× non-essential amino acids (Invitrogen 11140-035), 0.5 mg/ml G418 (Invitrogen 10131-027), 2 mg/ml Blastocidin (PAA) and 10% is Australian foetal calf serum (Invitrogen 10099-141).
Replicon and control cells were trypsinised and counted. Replicon cells were diluted to 90,000 cells/ml and 100 μl of this used to seed columns 2-4, […] and 10-12 of a black, clear bottom 96-well plate for every three compounds to be tested for IC50. Control cells were diluted to 60,000 cells/ml and 100 μl of this used to seed columns 1, 5 and 9 of the plate. Well H1 was left empty as the blank. Plates were then incubated at 37° C./5% CO2 for 24 h.
On the following day compound dilutions were prepared in medium at twice their desired final concentration in a clear round bottomed plate.
Controls and compounds were transferred from the dilution plate to the assay plates (containing the cells) at 100 μl/well in quadruplicate wells, one well containing control cells and 3 wells containing replicon cells.
Exception: no compound was added to row H of the plate and 100 μl of 1% DMSO was added to these instead. Plates were then incubated at 37° C. with 5% CO2 for 72 h. At the end of the incubation time, any reduction in cell viability was assayed and a cell-based enzyme linked immunosorbent assay (ELISA) was performed. The media/compound was removed from all wells and replaced with 100 μl/well serum-free media and 20 μl/well Cell Titre Blue (Promega G8081). Following incubation at 37° C./5% CO2 for 2 h plates were read on a microplate fluorometer (Molecular Devices) using an excitation of 570 nm and an emission of 590 nm The TD50, the concentration of drug required to reduce 50% of Cell Titre Blue relative to the DMSO controls, was calculated by plotting the fluorescence at 590 nm after substraction of background against drug concentration.
The media/Cell Titre Blue was removed and plates washed in PBS and gently tapped dry before addition of 50 μL per well of 75% acetone/25% methanol mixture for 3 minutes. The fixative was then discarded and wells were washed with PBS before addition of 100 μl/well of blocking solution (2% non-fat dry milk and 0.05% Tween-20 in 0.85% NaCl). Plates were then incubated at 37° C. in a shaking incubator for 60 min. Blocking solution was discarded and 50 μl of mouse anti-NS5a antibody (Virostat 1877) at 1:100 dilution in blocking buffer was added to all wells. Plates were incubated at 37° C. in a shaking incubator for 90 min Antibody was then discarded and plates were washed 4 times by immersion in 0.85% NaCl/0.05% Tween-20. After washing plates were tapped dry gently and 50 μl of secondary antibody (Dako P0260 Rabbit anti-mouse horseradish peroxidase) at 1:1000 dilution in blocking buffer was added to the wells. Plates were incubated at 37° C. in a shaking incubator for 60 min. Antibody was discarded and plates were washed 6 times by immersion in 0.85% NaCl/0.05% Tween-20 and once in PBS. Finally, 50 μl of substrate (SigmaFast ortho-phenylene diamine dihydrochloride (OPD)) was added per well and the colorimetric reaction was allowed to proceed in the dark for 5 to 15 minutes depending on the strength or the signal. The reaction was stopped by addition of 25 μl/well of 20% sulphuric acid. Plates were read on the SpectraMax microplate reader at 490 nm fixed wavelength. […]

[2] = system: HCV replicon cells Huh 9B (genotype 1b); experiment: 1b Replicon Assay (luciferase readout); assay type: cell-based; conditions: Hepatitis C virus, Huh 9B replicon cells, 72 h, luciferase activity; for pIC50: read-out: HCV IC50 1b Replicon; for IC50: read-out: pIC50 1b Replicon (converted)
Procedure: HCV replicon cells Huh 9B (ReBlikon), containing the firefly luciferase-ubiquitin-neomycin phosphotransferase fusion protein and EMCV-IRES driven HCV polyprotein with cell culture adaptive mutations.
Cells were cultured at 37° C./5% CO2 and split twice a week. G418 at 0.5 mg/ml was added to the culture medium but not the assay medium.
The culture medium consisted of DMEM with […] glucose and Glutamax (Gibco 61965-026) supplemented with 1× non-essential amino acids (Invitrogen 11140-035), 0.5 mg/ml G418 (Invitrogen 10131-027) and 10% Australian foetal calf serum (Invitrogen 10099-141).
Replicon cells were trypsinised and counted. Cells were diluted to 100,000 cells/ml and 100 μl used to seed one opaque white 96-well plate (for the replicon assay) and one flat-bottomed clear plate (for the tox assay) for every five compounds to be tested for IC50. Wells G12 and H12 were left empty in the clear plate as the blank. Plates were then incubated at 37° C./5% CO2 for 24 h.
On the following day compound dilutions were prepared in medium at twice their desired final concentration in a clear round bottomed plate. All dilutions have a final DMSO concentration of 1%.
Controls and compounds were transferred from the dilution plates to the assay plates (containing the cells) at 100 μl/well in duplicate wells.
Exception: no compound was added to wells A1 and A2 of either plate and 100 μl of 1% DMSO was added to these instead. Plates were then incubated at 37° C./5% CO2 for 72 h.
At the end of the incubation time, the cells in the white plate were washed in PBS (100 μL per well) and dried by tapping before addition of 204 per well of lysis buffer (25 mM tris-phosphate, 8 mM MgCl2, 1 mM DTT, 1% Triton X-100, 15% glycerol; pH to 7.8 using KH2PO4 prior to Triton X-100 and glycerol addition). Aliquots of substrate (23.5 mM beetle luciferin (Promega E1603), 26 mM ATP (Sigma O-2060) in […] Tris buffer pH 7.8) were stored at −80° C. Prior to use, required amount of luciferin was thawed and diluted 1:50 in luciferase assay buffer (20 mM Tricine (Sigma T-0377), 1.07 mM magnesium carbonate hydroxide (Sigma M-5671), 0.1 mM EDTA (Sigma E-5134), 2.67 mM MgSO4(BDH 101514Y), 33.3 mM dithiothreitol (Sigma 150460) pH 7.8).
After 5-60 min incubation in lysis buffer at room temperature, a plate was inserted into the luminometer and 100 μl luciferase assay reagent was added by the injector of the luminometer. The signal was measured using a 1 second delay followed by a 4 second measurement programme. The IC50, the concentration of the drug required for reducing the replicon level by 50% in relation to the untreated cell control value, was calculated from the plot of the percentage reduction of the luciferase activity vs. drug concentration.

Compound | pIC50 [1] | IC50 [1] [nM] | pIC50 [2] | IC50 [2] [nM]
CC(C)[C@H](N)C(=O)N1CCC[C@H]1c1ncc(-c2ccc(-c3ccc(C(=O)Nc4ccc(CN5CCS(=O)(=O)CC5)cc4)cc3)cc2)[nH]1 [Example 10, 4-[4-[2-[(2S)-1-[(2S)-2-amino-3-methyl-butanoyl]pyrrolidin-2-yl]-1H-imidazol-5-yl]phenyl]-N-[4-[(1,1-dioxo-1,4-thiazinan-4-yl)methyl]phenyl]benzamide] | 6.49 | 324 | 7.19 | 64.6
CC(C)(C)OC(=O)NCC(=O)N1CCC[C@H]1c1ncc(-c2ccc(-c3ccc(C(=O)Nc4ccc(CN5CCS(=O)(=O)CC5)cc4)cc3)cc2)[nH]1 [Example 12, tert-Butyl N-[2-[(2S)-2-[5-[4-[4-[[4-[(1,1-dioxo-1,4-thiazinan-4-yl)methyl]phenyl]carbamoyl]phenyl]phenyl]-1H-imidazol-2-yl]pyrrolidin-1-yl]-2-oxo-ethyl]carbamate] | 6.79 | 162 | 6.98 | 105
COC(=O)N[C@H](C(=O)N1CCC[C@@H]1c1ncc(-c2ccc(-c3ccc(C(=O)Nc4ccc(CN5CCS(=O)(=O)CC5)cc4)cc3)cc2)[nH]1)c1ccccc1 [Example 23, Methyl N-[(1S)-2-[(2R)-2-[5-[4-[4-[[4-[(1,1-dioxo-1,4-thiazinan-4-yl)methyl]phenyl]carbamoyl]phenyl]phenyl]-1H-imidazol-2-yl]pyrrolidin-1-yl]-2-oxo-1-phenyl-ethyl]carbamate] | – | – | 6.96 | 110
COC(=O)N[C@@H](C(=O)N1CCC[C@@H]1c1ncc(-c2ccc(-c3ccc(C(=O)Nc4ccc(CN5CCS(=O)(=O)CC5)cc4)cc3)cc2)[nH]1)c1ccccc1 [Example 24, Methyl N-[(1R)-2-[(2R)-2-[5-[4-[4-[[4-[(1,1-dioxo-1,4-thiazinan-4-yl)methyl]phenyl]carbamoyl]phenyl]phenyl]-1H-imidazol-2-yl]pyrrolidin-1-yl]-2-oxo-1-phenyl-ethyl]carbamate] | – | – | 6.99 | 102
CCN(CC)[C@@H](C(=O)N1CCC[C@@H]1c1ncc(-c2ccc(-c3ccc(C(=O)Nc4ccc(CN5CCS(=O)(=O)CC5)cc4)cc3)cc2)[nH]1)c1ccccc1 [Example 25, 4-[4-[2-[(2R)-1-[(2R)-2-(diethylamino)-2-phenyl-acetyl]pyrrolidin-2-yl]-1H-imidazol-5-yl]phenyl]-N-[4-[(1,1-dioxo-1,4-thiazinan-4-yl)methyl]phenyl]benzamide] | – | – | 7.11 | 77.6
CN(C)[C@@H](C(=O)N1CCC[C@@H]1c1ncc(-c2ccc(-c3ccc(C(=O)Nc4ccc(CN5CCS(=O)(=O)CC5)cc4)cc3)cc2)[nH]1)c1ccccc1 [Example 26, 4-[4-[2-[(2R)-1-[(2R)-2-(dimethylamino)-2-phenyl-acetyl]pyrrolidin-2-yl]-1H-imidazol-5-yl]phenyl]-N-[4-[(1,1-dioxo-1,4-thiazinan-4-yl)methyl]phenyl]benzamide] | – | – | 7.25 | 56.2
COC(=O)N[C@H](C(=O)N1CCC[C@H]1c1ncc(-c2cccc(-c3ccc(C(=O)Nc4ccc(CN5CCS(=O)(=O)CC5)cc4)cc3)c2)[nH]1)C(C)C [Example 33, Methyl N-[(1S)-1-[(2S)-2-[5-[3-[4-[[4-[(1,1-dioxo-1,4-thiazinan-4-yl)methyl]phenyl]carbamoyl]phenyl]phenyl]-1H-imidazol-2-yl]pyrrolidine-1-carbonyl]-2-methyl-propyl]carbamate] | – | – | 6.80 | 158
COC(=O)N[C@@H](C)C(=O)N1CCC[C@H]1c1ncc(-c2cccc(-c3ccc(C(=O)Nc4ccc(CN5CCS(=O)(=O)CC5)cc4)cc3)c2)[nH]1 [Example 34, Methyl N-[(1S)-2-[(2S)-2-[5-[3-[4-[[4-[(1,1-dioxo-1,4-thiazinan-4-yl)methyl]phenyl]carbamoyl]phenyl]phenyl]-1H-imidazol-2-yl]pyrrolidin-1-yl]-1-methyl-2-oxo-ethyl]carbamate] | – | – | 6.60 | 251
COC(=O)N[C@H](C(=O)N1CCC[C@H]1c1ncc(-c2cccc(-c3ccc(C(=O)Nc4ccc(CN5CCS(=O)(=O)CC5)cc4)cc3)c2)[nH]1)C(C)(C)C [Example 35, Methyl N-[(1S)-1-[(2S)-2-[5-[3-[4-[[4-[(1,1-dioxo-1,4-thiazinan-4-yl)methyl]phenyl]carbamoyl]phenyl]phenyl]-1H-imidazol-2-yl]pyrrolidine-1-carbonyl]-2,2-dimethyl-propyl]carbamate] | – | – | 6.89 | 129
COC(=O)N[C@H](C(=O)N1CCC[C@H]1c1ncc(-c2cccc(-c3ccc(C(=O)Nc4ccc(CN5CCS(=O)(=O)CC5)cc4)cc3)c2)[nH]1)c1ccccc1 [Example 36, Methyl N-[(1S)-2-[(2S)-2-[5-[3-[4-[[4-[(1,1-dioxo-1,4-thiazinan-4-yl)methyl]phenyl]carbamoyl]phenyl]phenyl]-1H-imidazol-2-yl]pyrrolidin-1-yl]-2-oxo-1-phenyl-ethyl]carbamate] | – | – | 7.81 | 15.5
COC(=O)N[C@@H](C(=O)N1CCC[C@H]1c1ncc(-c2cccc(-c3ccc(C(=O)Nc4ccc(CN5CCS(=O)(=O)CC5)cc4)cc3)c2)[nH]1)c1ccccc1 [Example 37, Methyl N-[(1R)-2-[(2S)-2-[5-[3-[4-[[4-[(1,1-dioxo-1,4-thiazinan-4-yl)methyl]phenyl]carbamoyl]phenyl]phenyl]-1H-imidazol-2-yl]pyrrolidin-1-yl]-2-oxo-1-phenyl-ethyl]carbamate] | – | – | 7.67 | 21.4
